Patent publication US12295936B2, “Immunomodulating urea azalides” (Zoetis Services LLC, priority 2020, dated 2025)
“Also recorded” adds a separate entry of the source.

How the values were obtained:
[1] = system: IL-1β; experiment: LPS-stimulated whole bovine blood assay, MSD cytokine detection; format: cell-based
[2] = system: M. haemolytica (OSU-012103-BHI); experiment: In vivo bovine M. haemolytica intratracheal lung infection challenge model; conditions: for Significance at .20 level to T01, lung lesions: Table 8 study; for Mortality/Euthanization Yes, % / Mortality/Euthanization Yes, Number / Significance to T01, mortality / Mortality/Euthanization No, % / Mortality/Euthanization No, Number: Table 9 study; for Significance to T01, mortality: p≤0.2; for Mortality/Euthanization No, % / Mortality/Euthanization No, Number: surviving animals
[3] = system: bovine respiratory disease (BRD); experiment: Natural bovine respiratory disease (field) studies; format: in vivo, cattle; conditions: saline 32.1%
[4] = pH dependent aqueous solubility; format: physicochemical
Protocol: In an aqueous solution, Example H-11 exists as an equilibrated mixture of two lactone isomers as shown above. The ratio is approximately 9:1 lactone A:B. The rate of equilibration depends on pH and temperature, with neutral pH giving faster equilibration, pH˜5-6 giving much slower equilibration, and higher temperatures resulting in faster equilibration. Equilibration occurs in under 1-hour at pH>6 and temperatures >60° C. H-11 isomerization is a 6 exo-Trig cyclization and is a favored reaction by Baldwin's Rules. The dominant isomer, lactone-A, is a 15-membered macrocyclic lactone, while the minor isomer, lactone-B, is a 13-membered macrocyclic lactone. […] Due to the pH dependent solubility of H-11, and other compounds of the invention, dissolution of an organic acid (e.g., citric acid) into water prior to adding the active agent (e.g., H-11) may be necessary to ensure complete dissolution, particularly for higher concentration solutions, thereby providing a solution with enough buffering capacity for dissolution.

[5] = system: CD163; experiment: CD163 expression by flow cytometry, blood of treated/challenged cattle; conditions: blood macrophages
[6] = system: E. coli and Salmonella isolates; experiment: Ames mutagenicity test; format: cell-based; conditions: 1-5000 μg/plate, plate incorporation method
Protocol: In an Ames mutagenicity test, Example H-91 (1-5000 μg/plate; using the plate incorporation method and a standard panel of bacterial (E. coli and Salmonella isolates) was negative (non-mutagenic).

[7] = system: IL-36RA; experiment: IL-36RA change during natural infection bovine studies; format: in vivo, cattle; conditions: H-91 0.5 mg/kg, H-11 0.1 mg/kg
Protocol: Intensive sample collection was conducted over a 96-hour period in a subset of cattle treated with Example H-91 (0.5 mg/kg) or H-11 (0.1 mg/kg) in the natural bovine infection studies. […] The compounds of the invention have shown an up-regulation of IL-36RA, which then binds to IL-36R limiting the pro-inflammatory response of IL-36. In addition, the IL-8 levels from one of the natural infection studies with Example H-91, increased 270% over the course of the study for control animals. In contrast, the IL-8 levels in animals dosed with Example H-91 decreased by about 15%.

CCCNC[C@]1(O)[C@H](C)O[C@@H](O[C@H]2[C@H](C)[C@@H](O[C@@H]3O[C@H](C)C[C@H](N(C)C(=O)N(C)c4ccccc4)[C@H]3O)[C@](C)(O)C[C@@H](C)CN[C@H](C)[C@@H](O)[C@](C)(O)[C@@H](CC)OC(=O)[C@@H]2C)C[C@@]1(C)OC [Example H-11, 1-((2S,3R,4S,6R)-2-(((2R,3S,4R,5R,8R,10R,11R,12S,13S,14R)-2-ethyl-3,4,10-trihydroxy-13-(((2R,4R,5S,6S)-5-hydroxy-4-methoxy-4,6-dimethyl-5-((propylamino)methyl)tetrahydro-2H-pyran-2-yl)oxy)-3,5,8,10,12,14-hexamethyl-15-oxo-1-oxa-6-azacyclopentadecan-11-yl)oxy)-3-hydroxy-6-methyltetrahydro-2H-pyran-4-yl)-1,3-dimethyl-3-phenylurea]
expression of IL-1β, LPS stimulated whole bovine blood ([1]; 4 independent studies with multiple blood donors, FIG. 4): dose dependent reduction | IC50 ([1]; Bos taurus, LPS-stimulated whole bovine blood, * = enhanced response at concentration indicating potential cytotoxicity): 36 µM | IL-1β OS of LPS ([1]; overstimulation of IL-1β, LPS-stimulated bovine whole blood): 32 µM | Significance at .20 level to T01, lung lesions ([2]; T03: 0.5 mg/kg subcutaneous): No | Significance at .20 level to T01, lung lesions ([2]; T04: 2.5 mg/kg subcutaneous): Yes | Mortality/Euthanization Yes, % ([2]; T03: 0.5 mg/kg subcutaneous): 16.7% | Mortality/Euthanization Yes, Number ([2]; T03: 0.5 mg/kg subcutaneous): 4 | Significance to T01, mortality ([2]; T03: 0.5 mg/kg subcutaneous): Yes | Mortality/Euthanization No, % ([2]; T03: 0.5 mg/kg subcutaneous): 83.3% | Mortality/Euthanization No, Number ([2]; T03: 0.5 mg/kg subcutaneous): 20 | Mortality/Euthanization Yes, % ([2]; T04: 2.5 mg/kg subcutaneous): 25.0% | Mortality/Euthanization Yes, Number ([2]; T04: 2.5 mg/kg subcutaneous): 6 | Significance to T01, mortality ([2]; T04: 2.5 mg/kg subcutaneous): No | Mortality/Euthanization No, % ([2]; T04: 2.5 mg/kg subcutaneous): 75.0% | Mortality/Euthanization No, Number ([2]; T04: 2.5 mg/kg subcutaneous): 18 | number of blood neutrophils ([2]; treatment 24 hours prior to challenge, FIG. 8): reduced | Treatment success ([3]; 0.03 mg/kg (T02) subcutaneous Day 0, natural field study to Day 7): 58.3% | Treatment success ([3]; 0.1 mg/kg (T03) subcutaneous Day 0, natural field study to Day 7): 60.7% | Treatment success ([3]; 0.3 mg/kg (T04) subcutaneous Day 0, natural field study to Day 7): 51.2% | Treatment success ([3]; 1 mg/kg (T05) subcutaneous Day 0, natural field study to Day 7): 40.5% | aqueous solubility ([4]; acidic pH): very soluble | aqueous solubility ([4]; as the pH approaches neutral conditions): lower solubility | CD163 expression in treated cattle [5]: reduced; also recorded: downregulated | Ames mutagenicity test [6]: non-mutagenic | IL-36RA concentration relative to the baseline concentration after the elevation ([7]; after roughly 8 hours): −55% | increase in IL-36RA compared to baseline ([7]; within 1 hour, FIG. 5): about 50%
